Strand notation (5' to 3'): a small letter for the sugar, then the base; units joined by * are phosphorothioate-linked, units joined directly phosphodiester-linked; [ ] holds rarer units or linkages, { } end groups; capitals alone tell only the bases. d = 2'-deoxy (DNA)
Legend:
TC-1 tumors = assay: Anti-tumor activity in mouse TC-1 bilateral tumor model; format: in vivo; details: antibody 10 mg/kg IP
Text: Approximately seven to eight week old female C57BL/6J mice were obtained from Jackson Laboratory (Sacramento, Calif.). Conventional animal chow and water were provided ad libitum. Animals were housed for one week prior to the start of the study. The average weight of the animals at the start of the study (i.e. tumor implantation) was 19 grams.
The TC-1 cell line, provided by Johns Hopkins University (Baltimore, Md.) is derived from mouse primary lung epithelial cells that were cotransformed with human papilloma virus (HPV-16) E6 and E7 and c-Ha.ras oncogene (Lin K Y et al. Cancer Res. 1996 Jan. 1, 56(1):21-6). TC-1 cells are syngeneic to C57BL6/J strain.
The TC-1 cells were cultured in DMEM supplemented with 10% fetal bovine serum and 0.4 mg/mL Geneticin. Sub-confluent TC-1 cells were injected subcutaneously (SC) in 0.1 mL of serum-free DMEM in both lower dorsal flanks (1×10^5 in right flank and 0.5×10^5 in left flank) of each animal. Animals were first shaved with electronic clippers in the areas that were used for the implantation.
Tumors were measured the day before the first dose and twice a week thereafter. Tumor length and width were measured using electronic calipers and tumor volume determined using the formula Volume (mm^3)=0.5×Length×[…] where length is the longer dimension. Animals were weighed the day before the first dose and twice a week thereafter. […]

[1] = system: Human peripheral blood mononuclear cells (PBMCs); assay: Induction of IFNα2a and IL-10 in human PBMCs (48 hours, Meso Scale Discovery kits); format: cell-based
Protocol: Human peripheral blood mononuclear cells (PBMCs) were isolated from buffy coats from two donors with Ficoll-Paque™ PLUS (GE Healthcare Bio-Sciences, Pittsburgh, Pa.) using standard Ficoll separation methods. Isolated PBMCs were washed twice in phosphate buffered saline (PBS) containing 2% fetal bovine serum (FBS), and 2 mM ethylenediaminetetraacetic acid (EDTA). The cells were resuspended and cultured in 96-well U-bottom plates at 1×10^6 cells per well in RPMI 1640 containing 10% FBS, 2 mM L-glutamine, 100 U/mL pencillin and 100 μg/mL streptomycin. The cells were cultured in the presence of C59-08 at doses ranging from 0.016 μM to 5 μM or 7 μM control ODN 1040 in a humidifed incubator at 37° C., 5% CO2 in final volume of 0.2 mL for 48 hours. Supernatants were harvested and assayed for IFNα2a and IL-10 using Meso Scale Discovery human IFNα2a and human IL-10 tissue culture kits (Rockville, Md.).

[2] = system: human tumor histocultures (renal cell carcinoma, NSCLC, bladder and colorectal cancer); assay: Ex vivo treatment of human tumor histocultures, mRNA expression by real-time quantitative PCR; format: cell-based; details: 0.1, 0.5, and 1 μM, 24 hours; RCC (n=5), NSCLC (n=3), bladder (n=1), colorectal (n=1) histocultures
Protocol: Human tumor specimens from patients were obtained from commercial sources (Bio-Options, Folio, Coversant Bio, and Boston BioSource) and University of Rochester.
Fresh tumor tissues were collected within 1 hour following surgery and placed into AQIX transportation media (AQIX, UK). Tissues were transported overnight at 4° C. to Merck Research Laboratories, Palo Alto, Calif.
The tumors were embedded in UltraPure™ low melting point agarose (Invitrogen, Carlsbad, Calif.) and were cut 400 μm with Mcllwain™ Tissue Chopper (Stoelting Co., Wood Dale, Ill.). The tumor slices were first set on the Millicell-CM cell culture insert (Millipore, Billerica, Calif.) and cultured at the interface between air and medium of 1 ml DMEM supplemented with 4.5 g/L glucose, L-glutamine, sodium pyruvate (Mediatech, Inc., Manassas, Va.), 10% FBS (SAFC Biosciences, Lenexa, Kans.), 100 U/ml penicillin, and 100 ug/ml streptomycin in humidifed incubator at 37° C., 5% CO2.
The tumor slices were cultured in the presence of 0.1, 0.5, and 1 μM C59-08 or 1 μM control ODN 1040 for 24 hours. The tumor samples were snap frozen in dry ice and stored at […] prior to processing.
Total RNA was isolated by homogenization into RNA STAT-60 (Tel-Test, Friendswood, Tex.) using a polytron homogenizer. The total RNA was extracted according to the manufacturer's protocol. After precipitation with isopropanol, total RNA was re-extracted with phenol:chloroform:isoamyl alcohol (25:24:1) (Sigma-Aldrich, St. Louis, Mo.) using phase-lock light tubes.
DNase-treated total RNA was reverse-transcribed using QuantiTect Reverse Transcription (Qiagen, Valencia, Calif.) according to manufacturer's protocol. […] Real-time quantitative PCR on 10 ng of cDNA from each sample was performed using unlabeled primers at 900 nM each with 250 nM of FAM-labeled probe in a TAQMAN™ RTqPCR reaction on the Fluidigm Biomark sequence detection system (Fluidigm, Foster City, Calif.). Levels of ubiquitin were measured in a separate reaction and were used to normalize the data by the Δ-Δ Ct method. […]

[3] = 2 donors, 0.016 μM to 5 μM, supernatant

5′-TCGAACGTTCGAACGTTCGAACGTTCGAAT-3′ (DNA dT*dC*dG*dA*dA*dC*dG*dT*dT*dC*dG*dA*dA*dC*dG*dT*dT*dC*dG*dA*dA*dC*dG*dT*dT*dC*dG*dA*dA*dT) [Compound C59-08, oligodeoxynucleotide with a phosphorothioate backbone and 5′OH and 3′OH; CpG class C type TLR9 agonist]
Complete regressions (CRs) of non-injected tumors (TC-1 tumors; left flank tumor, ODN IT only in right tumors on Days 0, 4, 8, 12): did not result in CRs | Complete regressions (CRs) of injected tumors (TC-1 tumors; right flank tumor, ODN IT (C59-08 2.5 mg/kg, CpG 1826 1 mg/kg) on Days 0, 4, 8, 12): did not result in CRs | optimal concentration for IFNα2a and IL-10 production [1]: 0.2 µM | IFNα2a production [1, 3]: induces | IL-10 production [1, 3]: induces | mRNA expression of IFNα-inducible genes (IFNα2, MCP1, MCP2, OAS2, IP-10, GBP1, ISG-54, MxB, and TRAIL) [2]: induced | mRNA expression of cytokines (IFNβ, IL-10, IL-12, IL-6, and TNFα) [2]: induced | mRNA expression of immune activation markers (CD80, CD86, CD40, CD70 and OX40L) [2]: induced

From patent US20180161427A1, “COMBINATION OF AN ANTI-IL-10 ANTIBODY AND A CPG-C TYPE OLIGONUCLEOTIDE FOR TREATING CANCER” (MERCK SHARP & DOHME CORP., priority 2015, published 2018)
